What was measured:
Format in all cases: in vivo
[1] = test system: winter barley (Hordeum vulgare); assay: Test C plant response; settings: Postemergence, scale 0 to 100
Source text: (§1) Seeds of plant species selected from bluegrass (annual bluegrass, Poa annua), blackgrass (Alopecurus myosuroides), canarygrass (Phalaris minor), chickweed (common chickweed, Stellaria media), galium (catchweed bedstraw, Galium aparine), bromegrass (downy bromegrass, Bromus tectorum), field poppy (Papaver rhoeas), field violet (Viola arvensis), green foxtail (Setaria viridis), deadnettle (henbit deadnettle, Lamium amplexicaule), Italian ryegrass (Lolium multiflorum), kochia (Kochia scoparia), lambsquarters (Chenopodium album), oilseed rape (Brassica napus), pigweed (Amaranthus retroflexus), Russian thistle (Salsola iberica), spring barley (Hordeum vulgare), spring wheat (Triticum aestivum), buckwheat (wild buckwheat, Polygonum convolvulus), wild mustard (Sinapis arvensis), wild oat (Avena fatua), wild radish (Raphanus raphanistrum), windgrass (Apera spica-venti), winter barley (Hordeum vulgare), and winter wheat (Triticum aestivum) were planted and treated postemergence with test chemicals formulated in a non-phytotoxic solvent mixture which included a surfactant. Plants ranged in height from 2 to 18 cm (1- to 4-leaf stage).
(§2) Treated plants and controls were maintained in a controlled growth environment for 14 days after which time all test plants were visually evaluated and compared to controls. Plant response ratings, summarized in Table C, are based on a scale of 0 to 100 where 0 is no effect and 100 is complete control. A dash (-) response means no test result.

[2] = test system: Italian ryegrass (Lolium multiflorum); assay: Test C plant response; settings: Postemergence, scale 0 to 100
Source text: as §1, §2

[3] = test system: galium (catchweed bedstraw, Galium aparine); assay: Test C plant response; settings: Postemergence, scale 0 to 100
Source text: as §1, §2

[4] = test system: mallow (common mallow, Malva sylvestris); assay: Test D pre-/postemergence plant response
Outline: (§3)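 Pre + post applications; loam/sand soil; solvent + surfactant vehicle; post-em plants 1- to 4-leaf (2–18 cm); greenhouse 14–21 d; visual score 0 (none) to 100 (full control) vs untreated.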

[5] = test system: field bindweed (Convolvulus arvensis); assay: Test D pre-/postemergence plant response
Outline: as §3

[6] = test system: Italian ryegrass (Lolium multiflorum); assay: Test D pre-/postemergence plant response
Outline: as §3

[7] = test system: chickweed (common chickweed, Stellaria media); assay: Test D pre-/postemergence plant response
Outline: as §3

[8] = test system: deadnettle (henbit deadnettle, Lamium amplexicaule); assay: Test B pre-/postemergence plant response; settings: Postemergence
Outline: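 Steps: sow seed in loam–sand soil and spray preemergence, or grow plants in peat-based medium to 1–4 leaves (2–18 cm) and spray postemergence; formulation is non-phytotoxic solvent plus surfactant; hold in greenhouse 13–15 days; score visually vs controls, 0 = no effect, 100 = complete control.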

[9] = Postemergence, 31 g ai/ha, scale 0 to 100
[10] = Postemergence, 62 g ai/ha, scale 0 to 100 (0 no effect, 100 complete control)
[11] = Postemergence, 125 g ai/ha, scale 0 to 100 (0 no effect, 100 complete control)
[12] = Postemergence, 16 g ai/ha, scale 0 to 100
[13] = Preemergence, 16 g ai/ha, scale 0 to 100, 0 no effect, 100 complete control
[14] = Preemergence, 31 g ai/ha, scale 0 to 100 (0 no effect, 100 complete control)
[15] = Preemergence, 62 g ai/ha, scale 0 to 100
[16] = Preemergence, 125 g ai/ha, scale 0 to 100
[17] = 31 g ai/ha, 0 to 100 scale (0 no effect, 100 complete control)
[18] = 125 g ai/ha, scale 0 to 100 (0 no effect, 100 complete control)
[19] = 250 g ai/ha, scale 0 to 100 (0 no effect, 100 complete control), 13 to 15 days

In the case of `Cc1ccccc1-n1c(-c2ccccc2)ncc(C(=O)C2=C(O)CCCC2=O)c1=O` [Compound 12], the “Plant response rating: Barley, Winter” value ([1]; 31 g ai/ha) is reported as 0, the “Plant response rating: Barley, Winter” value ([1]; 16 g ai/ha) is reported as 0 and the “Plant response rating: Barley, Winter” value ([1]; 62 g ai/ha) is reported as 0. For the same compound, the “Plant response rating: Barley, Winter” value ([1]; 125 g ai/ha) was 0, the “Plant response rating: Ryegrass, Italian” value ([2]; 31 g ai/ha) was 0 and the “Plant response rating: Ryegrass, Italian” value ([2]; 16 g ai/ha) was 0. For the same compound, the “Plant response rating: Ryegrass, Italian” value ([2]; 62 g ai/ha) was 0, the “Plant response rating: Ryegrass, Italian” value ([2]; 125 g ai/ha) was 0 and the “Plant response rating: Galium” value ([3]; 31 g ai/ha) was 50. For the same compound, the “Plant response rating: Galium” value ([3]; 16 g ai/ha) was 5, the “Plant response rating: Galium” value ([3]; 62 g ai/ha) was 60 and the “Plant response rating: Galium” value ([3]; 125 g ai/ha) was 80.
In the case of `O=C1CCCC(O)=C1C(=O)c1cnc(-c2ccccc2)n(CC2CCCO2)c1=O` (centres unmarked) [Compound 59], the “Plant response rating, Mallow” value [4, 9] is reported as 5, the “Plant response rating, Mallow” value [4, 10] is reported as 5 and the “Plant response rating, Mallow” value [4, 11] is reported as 40. For the same compound, the “Plant response rating, Mallow” value [4, 12] was 0, the “Plant response rating, Mallow” value [4, 13] was 0 and the “Plant response rating, Mallow” value [4, 14] was 65. For the same compound, the “Plant response rating, Mallow” value [4, 15] was 65, the “Plant response rating, Mallow” value [4, 16] was 65 and the “Plant response rating, Field Bindweed” value [5, 9] was 5. For the same compound, the “Plant response rating, Field Bindweed” value [5, 10] was 30, the “Plant response rating, Field Bindweed” value [5, 11] was 60 and the “Plant response rating, Field Bindweed” value [5, 12] was 5. The “Plant response rating, Field Bindweed” value [5, 13] was 0, the “Plant response rating, Field Bindweed” value [5, 14] was 0 and the “Plant response rating, Field Bindweed” value [5, 15] was 20. For the same compound, the “Plant response rating, Field Bindweed” value [5, 16] was 60, the “Plant response rating, Ryegrass, Italian” value [6, 9] was 0 and the “Plant response rating, Ryegrass, Italian” value [6, 10] was 5. The “Plant response rating, Ryegrass, Italian” value [6, 11] was 5, the “Plant response rating, Ryegrass, Italian” value [6, 12] was 0 and the “Plant response rating, Ryegrass, Italian” value [6, 13] was 0. The “Plant response rating, Ryegrass, Italian” value [6, 14] was 0, the “Plant response rating, Ryegrass, Italian” value [6, 16] was 20 and the “Plant response rating, Chickweed” value [7, 9] was 70. For the same compound, the “Plant response rating, Chickweed” value [7, 10] was 70.
With `COCCn1c(-c2ccccc2)ncc(C(=O)C2=C(O)CCCC2=O)c1=O` [Compound 85] the “Plant response rating, Mallow” value [4, 9] was 65, the “Plant response rating, Mallow” value [4, 10] was 70 and the “Plant response rating, Mallow” value [4, 11] was 75. For the same compound, the “Plant response rating, Mallow” value [4, 12] was 60, the “Plant response rating, Mallow” value [4, 13] was 80 and the “Plant response rating, Mallow” value [4, 15] was 95. For the same compound, the “Plant response rating, Mallow” value [4, 16] was 98, the “Plant response rating, Field Bindweed” value [5, 9] was 75 and the “Plant response rating, Field Bindweed” value [5, 10] was 75. The “Plant response rating, Field Bindweed” value [5, 11] was 75, the “Plant response rating, Field Bindweed” value [5, 12] was 65 and the “Plant response rating, Field Bindweed” value [5, 13] was 50. The “Plant response rating, Field Bindweed” value [5, 14] was 70, the “Plant response rating, Field Bindweed” value [5, 15] was 70 and the “Plant response rating, Field Bindweed” value [5, 16] was 98. The “Plant response rating, Ryegrass, Italian” value [6, 9] was 0, the “Plant response rating, Ryegrass, Italian” value [6, 10] was 15 and the “Plant response rating, Ryegrass, Italian” value [6, 11] was 20. For the same compound, the “Plant response rating, Ryegrass, Italian” value [6, 12] was 0, the “Plant response rating, Ryegrass, Italian” value [6, 13] was 0 and the “Plant response rating, Ryegrass, Italian” value [6, 14] was 0. The “Plant response rating, Ryegrass, Italian” value [6, 16] was 20, the “Plant response rating, Chickweed” value [7, 9] was 80 and the “Plant response rating, Chickweed” value [7, 10] was 100. For the same compound, the “Plant response rating, Chickweed” value [7, 11] was 100, the “Plant response rating, Chickweed” value [7, 13] was 90 and the “Plant response rating, Chickweed” value [7, 14] was 100. For the same compound, the “Plant response rating, Chickweed” value [7, 15] was 100 and the “Plant response rating, Chickweed” value [7, 16] was 100.
`Cc1ccc(Cl)cc1-n1c(-c2cccc(F)c2)ncc(C(=O)C2=C(O)CCCC2=O)c1=O` [Compound 184] was tested, and the “Plant response rating, Deadnettle” value [8, 17] was 100, the “Plant response rating, Deadnettle” value [8, 18] was 100 and the “Plant response rating, Deadnettle” value [8, 19] was 100.
`O=C1CCCC(O)=C1C(=O)c1cnc(-c2cccc(F)c2)n(C2CCCCC2)c1=O` [Compound 187] was tested, and the “Plant response rating, Deadnettle” value [8, 17] was 80 and the “Plant response rating, Deadnettle” value [8, 19] was 100.
`O=C1CCCC(O)=C1C(=O)c1cnc(-c2cccs2)n(C2CCCCC2)c1=O` [Compound 189] was tested, and the “Plant response rating, Deadnettle” value [8, 17] was 85, the “Plant response rating, Deadnettle” value [8, 18] was 100 and the “Plant response rating, Deadnettle” value [8, 19] was 100.
With `CCCn1c(-c2cccc(Cl)c2)ncc(C(=O)C2=C(O)CCCC2=O)c1=O` [Compound 190] the “Plant response rating, Deadnettle” value [8, 17] was 65, the “Plant response rating, Deadnettle” value [8, 18] was 100 and the “Plant response rating, Deadnettle” value [8, 19] was 100.

Reference: patent US8952024B2, “Herbicidal pyrimidone derivatives” (E I du Pont de Nemours and Company, priority 2009, dated 2015)
